Assay results reported in ChEMBL document CHEMBL3585263, “Novel Octahydropyrrolo[3,4-c]pyrroles Are Selective Orexin-2 Antagonists: SAR Leading to a Clinical Candidate” (J Med Chem, 2015).
In brackets after ≈: the same amount, converted by molar mass.

Legend:
[1] = Fraction unbound in cynomolgus monkey plasma at 0.1 to 10 uM after 6 hrs by equilibrium dialysis method; type: ADME, cell-free, Macaca fascicularis
[2] = tested on: Rattus norvegicus; experiment: Ex vivo OX2 receptor occupancy in po dosed Sprague-Dawley rat brain after 15 mins by autoradiographic analysis; type: functional, organism-based
[3] = Chemical stability of the compound in pH 7.4 phosphate buffer assessed as compound remaining at room temperature after 4 weeks by HPLC analysis; type: physicochemical; details: read-out: Stability
[4] = Half life in Sprague-Dawley rat at 1 mg/kg, iv; type: ADME, organism-based; details: in vivo
[5] = Chemical stability of the compound in pH 7.4 phosphate buffer assessed as compound remaining at 60 degC after 4 weeks by HPLC analysis; type: physicochemical; details: read-out: Stability
[6] = Chemical stability of the compound in pH 2 phosphate buffer assessed as compound remaining at room temperature after 1 week by HPLC analysis; type: physicochemical; details: read-out: Stability
[7] = Fraction unbound in mouse plasma at 0.1 to 10 uM after 6 hrs by equilibrium dialysis method; type: ADME, cell-free
[8] = Physical stability of the compound at ambient relative humidity at 22 degC after 4 weeks by PXRD analysis; type: physicochemical; details: 672 h
[9] = Chemical stability of the compound assessed as compound remaining at ambient relative humidity at 22 degC after 4 weeks by HPLC analysis; type: physicochemical; details: read-out: Stability
[10] = tested on: Rattus norvegicus; experiment: Effect on REM sleep time in rat electroencephalographic model at 1 to 30 mg/kg, po administered at onset of dark phase measured for 2 hrs by telemetry device; type: ADME, organism-based; details: in vivo
[11] = Clearance in Balb/c mouse at 10 mg/kg, po and 1 mg/kg, iv; type: ADME, organism-based; details: in vivo
[12] = Half life in Balb/c mouse at 1 mg/kg, iv; type: ADME, organism-based; details: in vivo
[13] = Chemical stability of the compound in pH 2 phosphate buffer assessed as compound remaining at 60 degC after 4 weeks by HPLC analysis; type: physicochemical; details: read-out: Stability
[14] = Volume of distribution at steady state in beagle dog at 10 mg/kg, po and 1 mg/kg, iv; type: ADME, organism-based, Canis lupus familiaris; details: in vivo, read-out: Vdss
[15] = Physical stability of the compound at ambient relative humidity at 80 degC after 4 weeks by PXRD analysis; type: physicochemical; details: 672 h
[16] = Chemical stability of the compound in pH 10 carbonate buffer assessed as compound remaining at room temperature after 4 weeks by HPLC analysis; type: physicochemical; details: read-out: Stability
[17] = Chemical stability of the compound in pH 7.4 phosphate buffer assessed as compound remaining at room temperature after 1 week by HPLC analysis; type: physicochemical; details: read-out: Stability
[18] = Half life in beagle dog at 1 mg/kg, iv; type: ADME, organism-based, Canis lupus familiaris; details: in vivo
[19] = Clearance in cynomolgus monkey at 10 mg/kg, po and 1 mg/kg, iv; type: ADME, organism-based, Macaca fascicularis; details: in vivo
[20] = Oral bioavailability in cynomolgus monkey at 10 mg/kg; type: ADME, organism-based, Macaca fascicularis; details: in vivo
[21] = Physical stability of the compound at 75% relative humidity at 40 degC after 4 weeks by PXRD analysis; type: physicochemical; details: 672 h
[22] = Chemical stability of the compound in pH 10 carbonate buffer assessed as compound remaining at room temperature after 1 week by HPLC analysis; type: physicochemical; details: read-out: Stability
[23] = Half life in cynomolgus monkey at 1 mg/kg, iv; type: ADME, organism-based, Macaca fascicularis; details: in vivo
[24] = Chemical stability of the compound in pH 2 phosphate buffer assessed as compound remaining at room temperature after 4 weeks by HPLC analysis; type: physicochemical; details: read-out: Stability
[25] = Chemical stability of the compound in pH 10 carbonate buffer assessed as compound remaining at 60 degC after 4 weeks by HPLC analysis; type: physicochemical; details: read-out: Stability
[26] = Oral bioavailability in Balb/c mouse at 10 mg/kg; type: ADME, organism-based; details: in vivo
[27] = Clearance in Sprague-Dawley rat at 10 mg/kg, po and 1 mg/kg, iv; type: ADME, organism-based; details: in vivo
[28] = tested on: Plasma; experiment: Fraction unbound in human plasma at 0.1 to 10 uM after 6 hrs by equilibrium dialysis method; type: ADME, cell-free
[29] = Fraction unbound in beagle dog plasma at 0.1 to 10 uM after 6 hrs by equilibrium dialysis method; type: ADME, cell-free, Canis lupus familiaris
[30] = tested on: Rattus norvegicus; experiment: Reduction in NREM sleep latency in po dosed rat electroencephalographic model administered at onset of dark phase by telemetry device; type: functional, organism-based
[31] = Chemical stability of the compound in pH 4 acetate buffer assessed as compound remaining at 60 degC after 4 weeks by HPLC analysis; type: physicochemical; details: read-out: Stability
[32] = Volume of distribution at steady state in Balb/c mouse at 10 mg/kg, po and 1 mg/kg, iv; type: ADME, organism-based; details: in vivo, read-out: Vdss
[33] = Oral bioavailability in beagle dog at 10 mg/kg; type: ADME, organism-based, Canis lupus familiaris; details: in vivo
[34] = tested on: Plasma; experiment: Fraction unbound in rat plasma at 0.1 to 10 uM after 6 hrs by equilibrium dialysis method; type: ADME, cell-free
[35] = Volume of distribution at steady state in cynomolgus monkey at 10 mg/kg, po and 1 mg/kg, iv; type: ADME, organism-based, Macaca fascicularis; details: in vivo, read-out: Vdss
[36] = Clearance in beagle dog at 10 mg/kg, po and 1 mg/kg, iv; type: ADME, organism-based, Canis lupus familiaris; details: in vivo
[37] = Oral bioavailability in Sprague-Dawley rat at 10 mg/kg; type: ADME, organism-based; details: in vivo
[38] = Volume of distribution at steady state in Sprague-Dawley rat at 10 mg/kg, po and 1 mg/kg, iv; type: ADME, organism-based; details: in vivo, read-out: Vdss
[39] = tested on: Rattus norvegicus; experiment: Increase in NREM sleep time in po dosed rat electroencephalographic model administered at onset of dark phase measured for 2 hrs by telemetry device; type: functional, organism-based
[40] = tested on: Plasma; experiment: Plasma protein binding in human at 1 uM after 6 hrs by equilibrium dialysis method; type: ADME, cell-free; details: 6 h, 1 µM
[41] = Chemical stability of the compound assessed as compound remaining at ambient relative humidity at 80 degC after 4 weeks by HPLC analysis; type: physicochemical; details: read-out: Stability
[42] = Chemical stability of the compound in pH 4 acetate buffer assessed as compound remaining at room temperature after 1 week by HPLC analysis; type: physicochemical; details: read-out: Stability
[43] = tested on: Rattus norvegicus; experiment: Ex vivo OX2 receptor occupancy in Sprague-Dawley rat brain at 30 mg/kg, po after 15 mins by autoradiographic analysis; type: functional
[44] = tested on: Plasma; experiment: Plasma protein binding in rat at 1 uM after 6 hrs by equilibrium dialysis method; type: ADME, cell-free; details: 6 h, 1 µM
[45] = Chemical stability of the compound in pH 2 phosphate buffer assessed as compound remaining at 60 degC after 1 week by HPLC analysis; type: physicochemical; details: read-out: Stability
[46] = Chemical stability of the compound in pH 4 acetate buffer assessed as compound remaining at room temperature after 4 weeks by HPLC analysis; type: physicochemical; details: read-out: Stability
[47] = Chemical stability of the compound assessed as compound remaining at 75% relative humidity at 40 degC after 4 weeks by HPLC analysis; type: physicochemical; details: read-out: Stability
[48] = Chemical stability of the compound in pH 10 carbonate buffer assessed as compound remaining at 60 degC after 1 week by HPLC analysis; type: physicochemical; details: read-out: Stability
[49] = Chemical stability of the compound in pH 7.4 phosphate buffer assessed as compound remaining at 60 degC after 1 week by HPLC analysis; type: physicochemical; details: read-out: Stability
[50] = Chemical stability of the compound in pH 4 acetate buffer assessed as compound remaining at 60 degC after 1 week by HPLC analysis; type: physicochemical; details: read-out: Stability
[51] = biological target: T1, Orexin receptor type 2 (Rattus norvegicus, UniProt P56719); experiment: Binding affinity to rat OX2 receptor
T1 sequence (P56719 whole entry): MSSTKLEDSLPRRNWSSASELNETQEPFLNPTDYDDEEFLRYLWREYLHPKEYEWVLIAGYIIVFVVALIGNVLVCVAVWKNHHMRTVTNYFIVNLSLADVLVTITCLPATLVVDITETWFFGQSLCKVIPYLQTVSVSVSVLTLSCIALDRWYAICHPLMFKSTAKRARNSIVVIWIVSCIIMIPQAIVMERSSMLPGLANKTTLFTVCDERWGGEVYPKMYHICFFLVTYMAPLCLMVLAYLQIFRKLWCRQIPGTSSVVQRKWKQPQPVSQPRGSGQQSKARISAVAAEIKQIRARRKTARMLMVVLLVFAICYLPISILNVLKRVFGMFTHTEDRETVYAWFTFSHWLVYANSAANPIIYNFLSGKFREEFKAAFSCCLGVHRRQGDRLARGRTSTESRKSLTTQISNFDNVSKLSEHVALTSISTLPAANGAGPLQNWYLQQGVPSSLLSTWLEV

[52] = Protein binding in rat brain at 5 uM after 5 hrs by equilibrium dialysis method; type: ADME, tissue-based; details: read-out: PB (converted)
[53] = biological target: T2, Orexin/Hypocretin receptor type 1 (Homo sapiens, UniProt O43613); experiment: Binding affinity to human OX1 receptor expressed in CHO cell membranes by scintillation counting analysis
T2 sequence (O43613 whole entry): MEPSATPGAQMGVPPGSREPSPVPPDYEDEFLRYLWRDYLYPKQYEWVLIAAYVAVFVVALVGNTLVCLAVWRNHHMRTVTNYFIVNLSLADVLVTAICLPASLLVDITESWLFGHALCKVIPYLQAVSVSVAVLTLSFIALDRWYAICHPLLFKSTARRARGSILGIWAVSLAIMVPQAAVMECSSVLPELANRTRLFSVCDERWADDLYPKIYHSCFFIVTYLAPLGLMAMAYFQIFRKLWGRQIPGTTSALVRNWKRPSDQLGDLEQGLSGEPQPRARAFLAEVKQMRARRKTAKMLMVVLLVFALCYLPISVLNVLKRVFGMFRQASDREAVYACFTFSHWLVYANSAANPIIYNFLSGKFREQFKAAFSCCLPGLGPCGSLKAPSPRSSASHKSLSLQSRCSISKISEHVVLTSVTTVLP

Cc1cc(C)nc(N2C[C@H]3CN(C(=O)c4c(F)cccc4-n4nccn4)C[C@H]3C2)n1 [SELTOREXANT]
fraction unbound at 6 h [1]: 0.044 | EC50 [2]: 0.171 µg/mL (≈ 0.42 µM) | Occ [2]: Dose-dependent effect | ED50 ([2]; po): 3 mg/kg | remaining at 672 h [3]: 103% | half-life [4]: 18 min | remaining at 672 h [5]: 99.8% | remaining at 168 h [6]: 100% | fraction unbound at 6 h [7]: 0.041 | Stability [8]: Stable | remaining at 672 h [9]: 100% | Activity [10]: Non-toxic | clearance [11]: 36 mL/min/kg | half-life [12]: 12 min | remaining at 672 h [13]: 101% | Vd [14]: 0.7 L/kg | Stability [15]: Stable | remaining at 672 h [16]: 102% | remaining at 168 h [17]: 101% | half-life [18]: 66 min | clearance [19]: 16 mL/min/kg | bioavailability [20]: 6% | Stability [21]: Stable | remaining at 168 h [22]: 101% | half-life [23]: 24 min | remaining at 672 h [24]: 102% | remaining at 672 h [25]: 102% | bioavailability [26]: 16% | clearance [27]: 40 mL/min/kg | Fu [28]: 2.9% | fraction unbound at 6 h [29]: 0.096 | Activity [30]: Dose-dependent effect | remaining at 672 h [31]: 102% | Vd [32]: 0.6 L/kg | bioavailability [33]: 19% | Fu [34]: 5.6% | Vd [35]: 0.4 L/kg | clearance [36]: 9.8 mL/min/kg | bioavailability [37]: 24% | Vd [38]: 0.7 L/kg | Activity [39]: Dose-dependent effect | PPB [40]: 95.9% | remaining at 672 h [41]: 100% | remaining at 168 h [42]: 99.7% | Occ [43]: 71% | PPB [44]: 92.7% | remaining at 168 h [45]: 101% | remaining at 672 h [46]: 101% | remaining at 672 h [47]: 100% | remaining at 168 h [48]: 102% | remaining at 168 h [49]: 102% | remaining at 168 h [50]: 99.4% | Ki [51]: 10 nM | fraction unbound at 5 h, 5 µM [52]: 0.119

COc1cccc(OC)c1C(=O)N1CCCN(c2nc3ccc(Cl)cc3s2)CC1
Ki [53]: 216 nM
